{"source": "patent US8058286B2", "about": "“Method for therapy of diarrhea-predominant irritable bowel disorders” (Toray Industries, Inc., priority 2005, dated 2011)", "system": "Rat Defecation Models Induced by Restraint Stress", "assay": "Rat defecation models induced by restraint stress (number of feces within 60 minutes)", "assay_type": "in vivo", "excerpt": "The fact that the morphinan derivatives having the nitrogen-containing cyclic substituent, represented by Formula (I) and the pharmaceutically acceptable acid addition salts thereof are effective for functional bowel disorders may be confirmed by showing inhibitory action against transportation ability of large intestine, which ability has been increased by applying restraint stress. The inhibitory action against the increased transportation ability of large intestine may be confirmed by a reported method (Miyata K et. al., J. Pharmacol. Exp. Ther., 261, 297-303, 1992. or Kobayashi S et. al., Jpn. J. Pharmacol., 86, 281-8, 2001.), but the method is not restricted thereto.\nA solvent or the Compound 1 was subcutaneously administered, and 15 minutes later, application of restraint stress was started. The number of feces within 60 minutes from the beginning of the application of the stress was counted and the effect was evaluated (one group consisted of 6 rats). The rats in a control group to which the restraint stress was not applied were merely moved to a new plastic cage.\nIn the group to which 5 w/v % xylitol solution containing 0.1 w/v % citric acid used as the solvent alone was administered, the rats to which the restraint stress was not applied defecated 1.0 feces on average within the 60 minutes, while the rats to which the restraint stress was applied defecated 6.5 feces on average, so that increase in the number of feces caused by the stress was observed.\nCompounds 10, 11, 12 and 13 were evaluated in the same manner as in Example 1. In the group to which 5 w/v % xylitol solution containing 0.1 w/v % citric acid used as the solvent alone was administered, the rats to which the restraint stress was applied defecated 7.5 feces on average within the 60 minutes. The number of feces was decreased to 0.3 on average when 0.3 mg/kg of Compound 10 was administered, decreased to 4.2 on average when 1 mg/kg of Compound 11 was administered, decreased to 3.7 on average when 0.3 mg/kg of Compound 12 was administered, and decreased to 4.1 on average when 10 mg/kg of Compound 13 was administered.", "key": {"[1]": {"conditions": "0.3 mg/kg subcutaneous 15 minutes before restraint stress, solvent group with stress 7.5"}}, "note": "Counter-ions that a name gives are not always drawn."}
{"smiles": "O=C1c2ccccc2C(=O)N1[C@@H]1CC[C@@]2(O)[C@H]3Cc4ccc(O)c5c4[C@@]2(CCN3CC2CC2)[C@H]1O5", "note": "[Compound 1, N-(17-cyclopropylmethyl-4,5α-epoxy-3,14-dihydroxy-morphinan-6β-yl)-phthalimide]", "values": [{"measurement": "number of feces on average within 60 minutes from the beginning of restraint stress", "setting": "0.15 mg/kg subcutaneous 15 minutes before restraint stress, solvent group with stress 6.5, without stress 1.0", "value": 1.0}, {"measurement": "activity to reduce the number of feces with respect to the solvent group", "setting": "0.15 mg/kg subcutaneous, restraint stress, result in words", "value": "statistically significant activity to reduce the number of feces was observed"}]}
{"smiles": "O=C1C2=C(CCCC2)C(=O)N1[C@@H]1CC[C@@]2(O)[C@H]3Cc4ccc(O)c5c4[C@@]2(CCN3CC2CC2)[C@H]1O5", "note": "[Compound 10, N-(17-cyclopropylmethyl-4,5α-epoxy-3,14-dihydroxy-morphinan-6β-yl)-3,4,5,6-tetrahydrophthalimide•tartaric Acid Salt]", "values": [{"measurement": "number of feces on average within 60 minutes from the beginning of restraint stress", "setting": "[1]", "value": 0.3}]}
{"smiles": "O=C1c2cccc(F)c2CN1[C@@H]1CC[C@@]2(O)[C@H]3Cc4ccc(O)c5c4[C@@]2(CCN3CC2CC2)[C@H]1O5", "note": "[Compound 11, 2-(17-cyclopropylmethyl-4,5α-epoxy-3,14-dihydroxy-morphinan-6β-yl)-4-fluoro-2,3-dihydro-isoindole-1-one-methanesulfonic Acid Salt]", "values": [{"measurement": "number of feces on average within 60 minutes from the beginning of restraint stress", "setting": "1 mg/kg subcutaneous 15 minutes before restraint stress, solvent group with stress 7.5", "value": 4.2}]}
{"smiles": "O=C1c2ccccc2S(=O)(=O)N1[C@@H]1CC[C@@]2(O)[C@H]3Cc4ccc(O)c5c4[C@@]2(CCN3CC2CC2)[C@H]1O5", "note": "[Compound 12, N-(17-cyclopropylmethyl-4,5α-epoxy-3,14-dihydroxy-morphinan-6β-yl)-O-sulfonbenzimide•tartaric Acid Salt]", "values": [{"measurement": "number of feces on average within 60 minutes from the beginning of restraint stress", "setting": "[1]", "value": 3.7}]}
{"smiles": "O=C1C=CC(=O)N1[C@@H]1CC[C@@]2(O)[C@H]3Cc4ccc(O)c5c4[C@@]2(CCN3CC2CC2)[C@H]1O5", "note": "[Compound 13, N-(17-cyclopropylmethyl-4,5α-epoxy-3,14-dihydroxy-morphinan-6β-yl)-maleimide•tartaric Acid Salt]", "values": [{"measurement": "number of feces on average within 60 minutes from the beginning of restraint stress", "setting": "10 mg/kg subcutaneous 15 minutes before restraint stress, solvent group with stress 7.5", "value": 4.1}]}
